Reference: US9415084B2, “Treatment of leaky or damaged tight junctions and enhancing extracellular matrix” (Arch Biosurgery, Inc., priority 2007, dated 2016)
Where “and” joins values, the source holds several entries; their conditions need not be identical. Equal entries are not always repeated.

Columns and labels:
[1] = test system: spinal cord; experiment: Hemostasis in a spinal cord injury (T2 hemisection); type: in vivo, rat; conditions: adult rats, 20 μl of 1% solution
Experimental: Under an operating microscope, the second thoracic spinal cord segment (T2) was identified before performing a dorsal laminectomy in anesthetized adult rats. After opening the dura mater, a right hemisection was performed using a ceramic knife. Immediately after the cord hemisection 20 μl of 1% solution of RADA16-I (SEQ ID NO: 60) (NHS-1) was applied to the area of the cut for bleeding control. The controls received a saline treatment. The animals were allowed to survive for up to 8 weeks as part of another experiment. The spinal environment and the brain environment were investigated for similarities or differences. Secondary damage caused by surgery can be reduced by quickly bringing bleeding under control. After laminectomy and removal of the dura, the spinal cord was hemisected at T2, from the dorsal to ventral aspect and treated (N=5) with 20 μl of 1% NHS-1. […] In the saline controls (n=5) it took on average 163 seconds to stop bleeding (FIG. 3a).

[2] = test system: femoral artery; experiment: Hemostasis in a high pressure femoral artery wound; type: in vivo, rat; conditions: two cases, data not shown
Experimental: Rats were placed on their backs and the hind limb was extended to expose the medial aspect of the thigh (FIG. 4b). The skin was removed and the overlying muscles were cut to expose the femoral artery and sciatic nerve. The femoral artery was cut to produce a high pressure bleeder. With a 27 gauge needle, 200 μl of 1% RADA16-I (SEQ ID NO: 60) (NHS-1) solution was applied over the site of injury. In two cases powder was applied to the injury site which also worked. (Data not shown and was not included in the analysis). Controls were treated with a combination of saline and pressure with a […]. All animals were sacrificed four hours after the experiment. The femoral artery of 14 adult rats was surgically exposed, transected and then treated with 200 μl of 1% solution of NHS-1 or iced saline and packing. The treated cases (n=10) took about 10 seconds to achieve hemostasis (FIG. 3a). The controls (n=4) continued to bleed more than 6 minutes. The difference in times to achieve complete hemostasis was highly significant (Student t test p<0.0001).

[3] = test system: liver; experiment: Hemostasis in liver transverse cut severing a branch of the portal vein; type: in vivo; conditions: rat liver transverse cut
Experimental: Rats were anesthetized and placed on their back and the abdomen was opened exposing the liver (FIG. 4c). The left lobe of the liver was cut using a scalpel in the rostral to caudal direction separating the two halves of the lobe in the sagittal cut. With a 27 gauge needle, 100 μl of 1% or 2%, of RADA16-I (SEQ ID NO: 60) (NHS-1), RADA-12 (NHS-2), or EAK-16 (TM-3) solution was applied to the site of injury. Livers of the controls were treated with saline or cauterized. Cauterization was performed using a thermal cautery device and was applied to entire surface of the injury. In another group of adult rats the same procedure was followed for the liver, which was cut transversely (FIG. 4d). With a 27 gauge needle, 400 μl of 1%, 2%, 3%, or 4% of NHS-1, or TM-3 solution was applied to the site of injury.
In the second experiment a major branch of the portal vein was severed while making a transverse cut in the left lobe to test NHS-1 in a high flow rate environment. Four concentrations of NHS-1 were tested (n=12) along with (n=4) control animals. 400 μl of 4% concentration NHS-1 was applied and bleeding stopped in 11 seconds. The test was successfully duplicated with 400 μl of both 3% and 2% NHS-1 solution; bleeding ceased in 10 and 10.3 seconds, respectively (FIG. 3d). When 400 μl of 1% NHS-1 was applied, bleeding continued for more than 60 seconds (FIG. 3d). The controls, however, bled for over 6 minutes. […] A significant difference was found between the NHS-1 treated and control groups using ANOVA.
The increased blood flow from the portal vein after making a transverse liver cut allowed the performance of another dose response experiment where various concentrations of NHS-1 (1% to 4%) and TM-3 (1% to 3%) could be compared with controls (FIG. 3d). All concentrations of NHS-1 were effective; however the higher blood pressure and flow rate after the transverse liver cut required a concentration of 2% or higher of NHS-1 to stop bleeding in less than 15 seconds.

[4] = test system: liver; experiment: Hemostasis in liver 4 mm punch biopsy; type: in vivo; conditions: rats allowed to survive for up to 6 months after 3% treatment
Experimental: In another group of anesthetized adult rats, the liver was exposed and a 4 mm punch biopsy from the ventral aspect through the liver to the dorsal surface of the left liver lobe. The resulting core was removed from the liver and one of three treatments was applied. In one treatment, 200 μl of a 3% NHS-1 solution was applied to the site of injury. In one control saline was applied to the site of injury. In a second control, the injury surface was cauterized. The superficial material was then wiped clear of the injury site. […]
In the third experiment using adult rats (n=45) 4 mm holes were punched through the left lateral lobe and then the area was treated with 3% NHS-1, saline or heat cautery to bring about hemostasis (FIG. 3b). […] In the heat cautery control group (n=15) cessation of bleeding took more than 60 seconds, inclusive of applying heat to cauterize the inside surface of the punch. […] Using ANOVA there was a significant difference between the 3% NHS-1 treatment and the controls (p<0.0001).

[5] = test system: brain, lung, or liver; experiment: Examination of treated animals for thrombi; type: in vivo
[6] = test system: liver; conditions: rat, in vivo
Experimental: (§1) In the brain and liver of anesthetized adult rats 1% or 2% of NHS-1 was injected immediately after making a cut and the treatment site was sampled. Samples were fixed in a mixture of 2% para-formaldehyde and 2.5% glutaraldehyde in 0.1M PB for 4 hours. The samples were washed in 0.1M PB buffer 10 min×3 at 4° C. and embedded in 2% agar. Agar blocks were post fixed in 1% osmium tetroxide for 2 hrs at 4° C. and then washed in buffer for 10 min×3 at 4° C. The sample blocks were dehydrated in ethanol infiltrated and embedded in pure epon with Lynx EM tissue processor. Ultra-thin 70 nm sections were cut (Reichert-Jung ultra cut) and collected on #200 mesh grids. Sections and grids were stained with uranyl acetate and lead citrate and examined under Philip EM208S transmission electron microscope.
Still looking for mechanism clues as well as further understanding of the relationship of the NHS-1 blood/tissue interface in both the brain and liver, the treated tissues were examined under the transmission electron microscope (TEM), to determine how the red blood cells (RBCs), platelets, tissue and the ECM interact with the material.
A 1% NHS-1 solution was applied to a liver wound and immediately harvested the tissue.

[7] = test system: brain; conditions: rat, in vivo
Experimental: as §1

Substance: n-RADARADARADARADA-c [NHS-1]
- time to hemostasis [1]: 7.6 s
- hemostasis with powder applied to the injury site [2]: also worked
- hemostasis after removing the excess assembled material ([3]; 2%, 3% and 4% concentration): complete hemostasis was maintained
- time to hemostasis ([3]; 400 μl of 2% solution): 10.3 s and 10.3 ± 0.5 s
- time to hemostasis ([3]; 400 μl of 3% solution): 10 s and 10.0 ± 1.0 s
- time to hemostasis ([3]; 400 μl of 4% solution): 11 s and 11.0 ± 1.0 s
- concentration required for complete hemostasis in less than 15 seconds ([3]; higher blood pressure/flow rate): ≥ 2%
- hemostatic effectiveness over the concentrations tested ([3]; NHS-1 1% to 4%, TM-3 1% to 3%): effective
- effect on the tissues in surviving animals [4]: no detrimental effect on the tissues
- thrombi in the brain, lung, or liver [5]: no evidence of thrombi
- lysing of RBCs at the interface [6]: no evidence of lysing
- platelet aggregation at the blood/NHS-1 interface [6]: no evidence of platelet aggregation
- lysing of RBCs at the edges of the assembled material [7]: no evidence of lysing
- platelet aggregation in the assembled material [7]: no evidence of platelet aggregation
